The results in this text go back to patent publication US9980943B2, “Methods of treating muscular dystrophy” (BOARD OF REGENTS OF THE NEVADA SYSTEM OF HIGHER EDUCATION, …, priority 2013, dated 2018).

Test [1] concerns α7 integrin (LacZ reporter in α7+/LacZ myotubes). Kind of test: Myotube α7 integrin FDG assay (Burkin assay in myotubes, 96-well). It is filed as cell-based, mouse. The settings on record: for Burkin Assay in Myotubes, value relative to DMSO: SU9516 analogs, 96-well, N=3-6.
Test [2] has as its system β-galactosidase in CMV-LacZ C2C12 myoblasts. Kind of test: CMV-LacZ secondary screen in C2C12 myoblasts (β-Gal stabilizing assay). It is filed as cell-based, mouse. The settings on record: for CMV-LACZ in Myoblasts, value relative to DMSO: SU9516 analogs, C2C12 CMV-LacZ, N=2. In a few lines: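 Stable CMV-LacZ C2C12 clone; six-point curve 0.5–40 μM; duplicates.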
In test [3] the test system is β-galactosidase in CMV-LacZ C2C12 myotubes. Description: CMV-LacZ secondary screen in C2C12 myotubes (β-Gal stabilizing assay). It is filed as cell-based, mouse. The settings on record: for CMV-LACZ in Myotubes, value relative to DMSO: SU9516 analogs, C2C12 CMV-LacZ, N=2. In a few lines: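 A secondary screen identifies compounds that stabilize β-gal independently of the native promoter, using CMV-LacZ C2C12 cells. Curves span 0.5–40 μM at six levels, in duplicate.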

The test system of test [4] is α7 Integrin protein in C2C12 myotubes. Kind of test: Western blot of α7 integrin protein in C2C12 myotubes. The settings on record: 12 μM, 48 hours, α7B Integrin normalized to GAPDH. It is filed as cell-based, mouse. The procedure:
Bands were quantified using Image J software and then graphed as α7 Integrin protein levels relative to GAPDH protein levels. * denotes a significant difference in relative protein levels with ** p<0.01.
C2C12 myotubes were treated for 48 hours with each hit compound, washed with PBS, then scraped and pelleted using standard procedures. Cell pellets were resuspended in RIPA buffer and protein concentration determined by BCA. Approximately 10 μg of protein was loaded per lane and separated on 8% SDS-PAGE gels and transferred to nitrocellulose using standard conditions. Blots were probed using α7A and α7B integrin specific rabbit polyclonal antibody as previously described and […].
Western blot analysis of the myotube protein extracts were then performed for α7B Integrin and normalized to GAPDH (FIGS. 8A and 8B).
Immunoblot analysis is used to assess the protein level expression in treated and control cells. C2C12 and human DMD myoblasts and myotubes are cultured in triplicate experiments and treated with lead compounds or DMSO as described above. Cells are harvested using a cell scraper and extracted proteins. Extracted protein is quantified by a Bradford assay. […] A LiCoR Odyssey scanner and software is used to quantify band intensities and statistical significance (p<0.05) is determined using ANOVA.

Test [5] relates to α7 integrin (LacZ reporter in α7LacZ+/− myoblasts). Kind of test: qHTS of the LOPAC library and MLSMR (online screen, α7LacZ+/− myoblasts). The settings on record: LOPAC library. (qHTS replaces the single test concentration by a dilution series.)
Test [6] relates to α7 integrin (LacZ reporter in α7βgal+/− myoblasts). Description: Myoblast α7+/LacZ integrin FDG assay (Burkin assay in myoblasts, 96-well). It is filed as cell-based, mouse. The settings on record: SU9516 analogs, 96-well, N=3-6.

On to `COc1ccc2c(c1)/C(=C/c1cnc[nH]1)C(=O)N2` [SU9516, 3-[1-(3H-imidazol-4-yl)-meth-(Z)-ylidene]-5-methoxy-1,3-dihydro-indol-2-one, reference compound], for which, in test [1] (Mus musculus, Myotube, read-out: EC50 α7+/LacZ MT), the EC50 was 6 µM. Further, in test [2], the “activity in C2C12 CMV-LACZ myoblasts” value is listed as “showed activity”. Also, the “activity in C2C12 CMV-LACZ myotubes” value in test [3] is reported as “showed activity”. Moreover, the “increase in α7 Integrin protein levels compared to DMSO treated controls” value in test [4] is “approximately 1.6 fold”. For the same compound, the “outcome of preliminary LOPAC library screen” value in test [5] is listed as “hit”.

On to `CCn1c(O)c(C(C#N)=C2N=c3ccccc3=N2)c2ccccc21` [MLS000564846-01], for which the “Burkin Assay in Myoblasts, value relative to DMSO” value amounted to 0.8359 in test [6] (0.5 uM); 0.8438 in test [6] (1 uM); 0.8067 in test [6] (5 uM); 0.8704 in test [6] (10 uM); 0.7406 in test [6] (20 uM); 0.759 in test [6] (40 uM). Moreover, the “Burkin Assay in Myotubes, value relative to DMSO” value in test [1] (0.5 uM) worked out at 0.8836; in test [1] (1 uM) it was 0.9557; in test [1] (5 uM), 1.002; in test [1] (10 uM), 1.071; in test [1] (20 uM), 0.7006; in test [1] (40 uM), 0.7529. For the same compound, the “CMV-LACZ in Myoblasts, value relative to DMSO” value amounted to 0.9922 in test [2] (0.5 uM); 0.8172 in test [2] (1 uM); 0.9379 in test [2] (5 uM); 1.3619 in test [2] (10 uM); 1.2363 in test [2] (20 uM); 1.0885 in test [2] (40 uM). Further, the “CMV-LACZ in Myotubes, value relative to DMSO” value in test [3] (0.5 uM) is recorded as 0.8304; in test [3] (1 uM), 1.0444; in test [3] (5 uM) it was 1.1234; in test [3] (10 uM), 0.8711; in test [3] (20 uM), 1.2012; in test [3] (40 uM), 1.0094.

On to `O=C1C(c2c(O)[nH]c3ccccc23)=Nc2ccccc21` [NCGC00179302-02], for which the “Burkin Assay in Myoblasts, value relative to DMSO” value in test [6] (0.5 uM) was determined as 1.061; in test [6] (1 uM), 1.0859; in test [6] (5 uM), 0.606; in test [6] (10 uM), 0.7163; in test [6] (20 uM), 0.843; in test [6] (40 uM), 0.8067. The “Burkin Assay in Myotubes, value relative to DMSO” value in test [1] (0.5 uM) is recorded as 0.9349; in test [1] (1 uM), 0.9377; in test [1] (5 uM), 0.8181; in test [1] (10 uM), 0.7913; in test [1] (20 uM), 0.682; in test [1] (40 uM), 0.6871. Also, the “CMV-LACZ in Myoblasts, value relative to DMSO” value in test [2] (0.5 uM) is listed as 1.1867; in test [2] (5 uM), 2.4679; in test [2] (10 uM) it was 1.6628; in test [2] (20 uM) it was 1.0247; in test [2] (40 uM), 1.2873. In addition, the “CMV-LACZ in Myotubes, value relative to DMSO” value in test [3] (0.5 uM) is given as 0.9618; in test [3] (1 uM) it was 0.9736; in test [3] (5 uM) it was 1.1533; in test [3] (10 uM), 0.9196; in test [3] (20 uM) it was 1.0030; in test [3] (40 uM) it was 1.1410.
